Measurements: ChEMBL document CHEMBL3832761, “MMV Pathogen Box Bioactivity Data” (2017)

Legend:
HepG2 [1] = experiment: HepG2 inhibition at 10 uM (%) Cytotoxicity; type: functional; details: Homo sapiens
Plasmodium falciparum [2] = experiment: Antimalarial activity: Asexual Blood Stage Plasmodium falciparum 3D7 IC50 (uM); type: functional, organism-based
Plasmodium falciparum [3] = experiment: Antimalarial activity: Asexual Blood Stage Plasmodium falciparum Dd2 IC50 (uM); type: functional, organism-based
Plasmodium berghei = experiment: Antimalarial activity: Liver Stage Plasmodium berghei sporozoite Luciferase assay: inhibition at 10 uM (%); type: functional
Plasmodium falciparum [4] = experiment: Antimalarial activity: Asexual Blood Stage Plasmodium falciparum W2 IC50 (uM); type: functional, organism-based
Plasmodium falciparum [5] = experiment: Antimalarial activity: Gametocytes Plasmodium falciparum NF54 Gametocytes Stage V: inhibition at 10 uM (%); type: functional
MRC5 = experiment: MRC5 CC50 (uM) Cytotoxicity; type: functional; details: Homo sapiens
HepG2 [6] = experiment: Cytotoxicity data HepG2 CC20 (uM); type: functional

| Compound | inhibition at 10 µM (HepG2 [1]) [%] | IC50 (Plasmodium falciparum [2]) [nM] | IC50 (Plasmodium falciparum [3]) [nM] | Inhibition (Plasmodium berghei) [%] | IC50 (Plasmodium falciparum [4]) [nM] | Inhibition (Plasmodium falciparum [5]) [%] | inhibition (Plasmodium berghei) | inhibition (Plasmodium falciparum [5]) | CC50 (MRC5) [nM] | CC20 (HepG2 [6]) [nM] |
| --- | --- | --- | --- | --- | --- | --- | --- | --- | --- | --- |
| Nc1ncc(Br)cc1-c1nc2cc(Cl)cnc2[nH]1 | 42 | 1500 | 2240 | 89 | 2400 | 0 | – | – | – | – |
| CC1(C)Cc2c(c(N3CCOCC3)nc3snc(Br)c23)CO1 | 4 | 290 | 260 | 4 | 370 | 1 | – | – | – | – |
| Cc1cc(C)n(-c2ccc(NC(=O)C3CCN(Cc4cnc(C)s4)CC3)cc2)n1 | 18 | 780 | 2460 | 38 | 1870 | 0 | – | – | – | – |
| O=C(NCCN1CCCC1)c1cc(NCCN2CCOCC2)nc2ccc(Cl)cc12 | – | 100 | – | – | – | – | Series known to be active | Series known to be active | 33500 | – |
| Cc1cc(NC(=O)c2ccc(S(=O)(=O)N(Cc3ccccc3)C(C)C)cc2)no1 | 13 | 980 | 1360 | 72 | 690 | 12.9 | – | – | – | – |
| CCn1cnc2c(Nc3cc(F)cc(F)c3)nc(C#N)nc21 | 5 | 900 | 940 | 0 | 940 | 3 | – | – | – | – |
| c1ccc2c(c1)CN(CC1CC1)CC1(CCN(Cc3c[nH]c4cnccc34)CC1)O2 | 35 | 610 | 1600 | 89 | 2450 | 8.4 | – | – | – | – |
| Cc1ccc(-c2cc(C(=O)Nc3cccnc3)c3cc(Br)ccc3n2)cc1 | – | 100 | – | – | – | – | Series known to be active | Series known to be active | 20000 | – |
| Cc1cc(NCC(C)C)c2[nH]nc(-c3ccccc3)c2n1 | 9 | 1400 | – | – | 2380 | – | – | – | – | – |
| Cc1nn(C)cc1C(C)Nc1nncc(-c2ccc(C(F)(F)F)cc2)n1 (stereo not drawn) | 19 | 120 | 200 | 45 | 260 | 0 | – | – | – | – |
| CCc1cc(=O)n(C)c(SC(C)C(=O)Nc2ccc(F)cc2)n1 (stereo not drawn) | 25 | 1970 | 1990 | 47 | 2090 | 0 | – | – | – | – |
| COc1ccc(-c2cncc3ccc(C(=O)NCCCn4ccnc4)nc23)cc1 | 47 | 1080 | 1350 | 98 | 1720 | 71.3 | – | – | – | – |
| CCOc1ccccc1C(=O)Nc1cccc(-c2nc3ncccn3c2C)c1 | 4 | 1270 | 2720 | 94 | 1100 | 42.5 | – | – | – | – |
| O=C(C(Cc1c[nH]c2ccccc12)NS(=O)(=O)c1ccc(Cl)cc1)N1CCCCC1 (stereo not drawn) | 9 | > 2000 | 2000 | 0 | – | 23 | – | – | – | 21900 |
| COc1cc(OC)cc(C(=O)NCC2Cc3cc(Cl)cc(-c4ccncc4)c3O2)c1 (stereo not drawn) | 9 | 580 | 3260 | 52 | 1020 | 12.1 | – | – | – | – |
